Data set [1] in a line: Thioflavin T aggregation assay, peptoid incubated alone. In kind it is physicochemical. The settings on record: up to 100 µM, 37 °C, 10 days, 100 mM Tris buffer pH 7.4. The method, then:
(§1) Peptide Aβ42 or peptoid CPO_Aβ17-21 P were incubated alone at a concentration of 100 µM over a period of 7–10 days at 37 °C in 100 mM Tris buffer (pH 7.4). […] In aggregation inhibition experiments, apoE4 was pre-incubated with CPO_Aβ17-21 P in a molar ratio of 1:2 for 6 hrs at 37 °C followed by addition to freshly reconstituted Aβ42 on ice (molar ratio 100:1:2, Aβ42:apoE4:peptoid). As a control, Aβ42 was also incubated with CPO_Aβ17-21 P at a molar ratio of 100:2. For peptide Aβ40 all the experiments were conducted under the same conditions as Aβ42 except the peptide concentration was 400 µM. The molar ratio of Aβ40:apoE4:CPO_Aβ17-21 P was 100:1:2. (400 µM Aβ40:4 µM apoE4:8 µM CPO_Aβ17-21 P). Fibril formation by the different peptides at various time points was evaluated by a standard Thioflavin-T assay according to previously published protocols, [33].The samples were diluted in buffer containing 50 mM glycine, 2 µM Thioflavin T pH 9.2, and read on a Molecular Devices SpectraMax M2 spectrophotometer (Sunnyvale, CA) at excitation and emission wavelengths 440 and 482 nm.

Data set [2] relates to apoE4 mediated Aβ42 aggregation. Description: Thioflavin T assay of apoE4 mediated Aβ42 aggregation. Type of data set: biochemical, human. How it is done:
as §1

Data set [3] relates to APP/PS1 Tg mice. Description: Cognitive tests (radial arm maze, object recognition). Type of data set: in vivo. As to conditions: 0.2 mg per mouse i.p. twice weekly for 4 months. How it is done: The effect of CPO_Aβ17-21 P on Aβ deposition was tested in APP/PS1 Tg mice with plaque pathology. This AD mouse model develops plaque pathology from the age of 3 months. Animals were divided into two groups and received intraperitoneally (i.p.) injections of 0.2 mg of CPO_ Aβ17–21 P per mouse in sterile saline (n = 11, 5 male, 6 female) or saline alone (n = 10, 5 male, 5 female) as a control twice weekly for 4 months, beginning at age 3 months. During the treatment, veterinary staff monitored animals for any signs of toxicity, such as changes in body weight, physical appearance, and altered behavior. Animals were sacrificed a week after administration of the last treatment dose and behavioral testing. All mouse care and experimental procedures were compliant with guidelines of animal experimentation and were approved by the Institutional Animal Care and Use Committee at the New York University School of Medicine. […]
Spatial learning (working memory) was tested using a radial arm maze with eight radial 30-cm-long arms originating from the central space. […] The number of errors (entry into previously visited arms) was recorded during each session.
The spontaneous object recognition test measures short-term memory. […] The amount of time spent exploring each object within a defined zone of the area was automatically recorded by a tracking system (San Diego Instruments, San Diego, CA).

Structures are written as SMILES. Numbered stars: 1 amine (or outer) side, 2 acyl side, 3 side chain; on linkers, the order of the positions; unused ones are H or OH. Bridge positions count the residues as written; N and C are the ends. Square brackets hold non-standard residues; d marks the D form. Peptide text beside a SMILES is read from it. ξ: configuration not given here. N(CH2CH2CO)Gly = O=C(CN(CCC(=O)[*:3])[*:1])[*:2]; Nphe = O=C(O)CNCc1ccccc1; Nleu = CC(C)CNCC(=O)O; ξP = O=C(O)C1CCCN1; Sar = CNCC(=O)O

Consider `CC(C)CN1CC(=O)N2CCCC2C(=O)N(Cc2ccccc2)CC(=O)N(Cc2ccccc2)CC(=O)N(C)CC(=O)N(CC(N)=O)CCC1=O` (centres unmarked) [CPO_Aβ17-21 P] ([Nleu][ξP][Nphe][Nphe][Sar][N(CH2CH2CO)Gly]-NH2; lactam N-6), for which, in data set [1], the “formation of aggregates or fibrils by the peptoid alone” value was “did not produce aggregates or fibrils”. Further, the “inhibition of apoE4 mediated Aβ42 aggregation” value in data set [2] (100 µM Aβ42, molar ratio 100:1:2 Aβ42:apoE4:peptoid, apoE4 pre-incubated 6 hrs 37 °C, p = 0.0011) is recorded as “significant inhibition”. For the same compound, in data set [2] (Aβ42 + peptoid without apoE4, molar ratio 100:2), the “Aβ42 fibril formation with peptoid versus Aβ42 alone” value is on record as “no significant difference”. In data set [3] (p < 0.01 two-way ANOVA treatment effect), the “radial arm maze, number of errors” value is reported as “significant cognitive improvement”. Also, the novel object recognition entry in data set [3] (p = 0.016) was “significant cognitive improvement”.
